Data: patent publication US11253532B2, “Composition for promoting increase in androgen” (Kobayashi Pharmaceutical Co., Ltd., priority 2016, dated 2022)

Tested on: cells of testes collected from mice (primary culture)
Assay: Test Example 1: testosterone secretion from primary culture of mouse testes cells, measured by EIA
Assay type: cell-based, mice (ddY strain)
Conditions: 2-hour culture
Method: 2 mL of 50% ethanol was added to 4 mg/vial of compound K (trade name: Ginsenoside CK, 0150S, Extrasynthese S.A.) to dissolve compound K, and the obtained solution was suitably diluted with a DME/F-12 medium (Nacalai Tesque) containing 0.1% bovine serum albumin (BSA) (“0.1% BSA-DME/F-12”) to prepare a sample.
Testes were collected from mice (ddY strain, male, 7 to 8 weeks old), and subjected to primary culture. Specifically, testes were subjected to collagenase treatment (Worthington, Type 2, 0.05%, 37° C., 15 minutes) to disperse cells, and adjusted to 3×10^5 cells/0.5 mL in a DME/F-12 medium containing 10% fetal bovine serum (FBS). The cells were then seeded into a 24-well plate, and cultured overnight. After culture, the cells were washed with PBS(−) (Dulbecco's PBS (0.2 g/L of potassium chloride, 0.2 g/L of monopotassium phosphate, 8 g/L of sodium chloride, 1.15 g/L of anhydrous disodium phosphate, pH of 7.4, an isotonic solution, ion content: (mEq)Na^+ 148, K^+ 4, Cl^− 139)). The prepared sample was then added to the cells to give a volume of 1/10, together with a 0.1% BSA-DME/F-12 medium, and the concentration of compound K in the wells was adjusted to 1 μg/mL, 10 μg/mL, and 100 μg/mL.
A mixture solution of 50% ethanol and 0.1% BSA-DME/F-12 was prepared in place of the sample in the same manner as above, except that compound K was not added; this mixture was added to the cells to give a volume of 1/10 as above, thereby preparing a control (the concentration of compound K: 0 μg/mL).
After 2-hour culture, the medium was collected, and the testosterone levels in the mediums were measured by enzyme immunoassay (EIA).
Specifically, a goat anti-rabbit IgG antibody (2 μg/well) was added to a 96-well microplate (Nunc, Denmark), and the plate was coated at room temperature for 1 hour. After washing, a blocking agent (0.14M NaCl, 0.02% thimerosal, 1% BSA, 0.01M phosphate buffer, pH of 7.4) was added thereto to perform blocking at room temperature for 15 minutes. […] The absorbance at 490 nm was measured with a microplate reader to determine the testosterone secretion level.

Which results are given for CC(C)=CCC[C@](C)(O[C@@H]1O[C@H](CO)[C@@H](O)[C@H](O)[C@H]1O)[C@H]1CC[C@]2(C)[C@@H]1[C@H](O)C[C@@H]1[C@@]3(C)CC[C@H](O)C(C)(C)[C@@H]3CC[C@]12C [compound K, 20(S)-protopanaxadiol 20-O-β-d-glucopyranoside (M1)]?
testosterone level in a medium (compound K 1 μg/mL, not shown in FIG. 1): increased testosterone level; testosterone level in a medium (compound K 10 μg/mL, versus medium free from compound K (0 μg/mL), FIG. 1): higher; testosterone level in a medium (compound K 100 μg/mL, versus medium free from compound K (0 μg/mL), FIG. 1): higher
